ChEMBL document CHEMBL4229418, “Design, synthesis and pharmacology of aortic-selective acyl-CoA: Cholesterol O-acyltransferase (ACAT/SOAT) inhibitors” (Bioorg Med Chem, 2018)
≈ marks a conversion by molar mass, not a printed value.

How the values were obtained:
[1] = Tmax in non-fasted Beagle dog at 30 mg/kg, po by LC-MS/MS analysis; format: ADME, organism-based, Canis lupus familiaris; conditions: in vivo
[2] = Solubility of the compound in pH 1.2 solution; format: physicochemical; conditions: buffer
[3] = Tmax in fasted Beagle dog at 30 mg/kg, po by LC-MS/MS analysis; format: ADME, organism-based, Canis lupus familiaris; conditions: in vivo
[4] = Tmax in non-fasted Sprague-Dawley rat at 30 mg/kg, po by LC-MS/MS analysis; format: ADME, organism-based; conditions: in vivo
[5] = AUC (0 to 8 hrs) in non-fasted Sprague-Dawley rat at 30 mg/kg, po by LC-MS/MS analysis; format: ADME, organism-based; set-up: dose 30 mg/kg, time < 8 hr, route oral; conditions: in vivo
Hamster [6] = assay: Antiatherosclerotic activity in Bio F1B hamster model of diet-induced atherosclerosis assessed as reduction in lipid accumulation areas in aortic arch at 1 mg/kg/day added to chow pellets by oil red O staining based assay relative to control; format: functional; conditions: Cricetinae
Hamster [7] = assay: Antiatherosclerotic activity in Bio F1B hamster model of diet-induced atherosclerosis assessed as reduction in lipid accumulation areas in aortic arch at 3 mg/kg/day added to chow pellets by oil red O staining based assay relative to control; format: functional; conditions: Cricetinae
Canis familiaris = assay: Toxicity in dog assessed as induction of necrosis in adrenal reticular zona cells at 100 mg/kg measured over 2 weeks; format: organism-based, Canis lupus familiaris; conditions: in vivo, 336 h
Hamster [8] = assay: Toxicity in Bio F1B hamster model of diet-induced atherosclerosis assessed as plasma total cholesterol level at 3 mg/kg/day added to chow pellets (reference value: 2160.1 mg/dl); format: organism-based; conditions: cricetinae, in vivo
Hamster [9] = assay: Effect on lipid composition in Bio F1B hamster model of diet-induced atherosclerosis assessed as liver total cholesterol level at 3 mg/kg/day added to chow pellets (reference value: 31.99 mg/dl); format: functional, Cricetinae
Hamster [10] = assay: Effect on lipid composition in Bio F1B hamster model of diet-induced atherosclerosis assessed as liver total cholesterol level at 10 mg/kg/day added to chow pellets (reference value: 31.99 mg/dl); format: functional, Cricetinae
Hamster [11] = assay: Effect on lipid composition in Bio F1B hamster model of diet-induced atherosclerosis assessed as liver total cholesterol level at 30 mg/kg/day added to chow pellets (reference value: 31.99 mg/dl); format: functional, Cricetinae
Hamster [12] = assay: Effect on lipid composition in Bio F1B hamster model of diet-induced atherosclerosis assessed as intestine total cholesterol level at 30 mg/kg/day added to chow pellets (reference value: 4.51 mg/dl); format: functional, Cricetinae
Hamster [13] = assay: Effect on lipid composition in Bio F1B hamster model of diet-induced atherosclerosis assessed as adrenal total cholesterol level at 1 mg/kg/day added to chow pellets (reference value: 10.54 mg/dl); format: functional, Cricetinae
Hamster [14] = assay: Effect on lipid composition in Bio F1B hamster model of diet-induced atherosclerosis assessed as adrenal total cholesterol level at 3 mg/kg/day added to chow pellets (reference value: 10.54 mg/dl); format: functional, Cricetinae
Hamster [15] = assay: Effect on lipid composition in Bio F1B hamster model of diet-induced atherosclerosis assessed as adrenal total cholesterol level at 30 mg/kg/day added to chow pellets (reference value: 10.54 mg/dl); format: functional, Cricetinae
Hamster [16] = assay: Antiatherosclerotic activity in Bio F1B hamster model of diet-induced atherosclerosis assessed as plasma free cholesterol level at 1 mg/kg/day added to chow pellets (reference value: 780.8 mg/dl); format: functional, Cricetinae
Hamster [17] = assay: Antiatherosclerotic activity in Bio F1B hamster model of diet-induced atherosclerosis assessed as plasma free cholesterol level at 10 mg/kg/day added to chow pellets (reference value: 780.8 mg/dl); format: functional, Cricetinae
Hamster [18] = assay: Antiatherosclerotic activity in Bio F1B hamster model of diet-induced atherosclerosis assessed as liver free cholesterol level at 1 mg/kg/day added to chow pellets (reference value: 7.94 mg/dl); format: functional, Cricetinae
Hamster [19] = assay: Antiatherosclerotic activity in Bio F1B hamster model of diet-induced atherosclerosis assessed as intestinal free cholesterol level at 3 mg/kg/day added to chow pellets (reference value: 3.41 mg/dl); format: functional, Cricetinae
Hamster [20] = assay: Antiatherosclerotic activity in Bio F1B hamster model of diet-induced atherosclerosis assessed as intestinal free cholesterol level at 30 mg/kg/day added to chow pellets (reference value: 3.41 mg/dl); format: functional, Cricetinae
Hamster [21] = assay: Toxicity in Bio F1B hamster model of diet-induced atherosclerosis assessed as adrenal free cholesterol level at 1 mg/kg/day added to chow pellets (reference value: 4.65 mg/dl); format: organism-based; conditions: cricetinae, in vivo
Hamster [22] = assay: Toxicity in Bio F1B hamster model of diet-induced atherosclerosis assessed as adrenal free cholesterol level at 3 mg/kg/day added to chow pellets (reference value: 4.65 mg/dl); format: organism-based; conditions: cricetinae, in vivo
Hamster [23] = assay: Toxicity in Bio F1B hamster model of diet-induced atherosclerosis assessed as adrenal free cholesterol level at 10 mg/kg/day added to chow pellets (reference value: 4.65 mg/dl); format: organism-based; conditions: cricetinae, in vivo
Hamster [24] = assay: Toxicity in Bio F1B hamster model of diet-induced atherosclerosis assessed as adrenal free cholesterol level at 30 mg/kg/day added to chow pellets (reference value: 4.65 mg/dl); format: organism-based; conditions: cricetinae, in vivo
Hamster [25] = assay: Antiatherosclerotic activity in Bio F1B hamster model of diet-induced atherosclerosis assessed as plasma cholesterol ester level at 1 mg/kg/day added to chow pellets (reference value: 1379.3 mg/dl); format: functional, Cricetinae
Hamster [26] = assay: Antiatherosclerotic activity in Bio F1B hamster model of diet-induced atherosclerosis assessed as plasma cholesterol ester level at 10 mg/kg/day added to chow pellets (reference value: 1379.3 mg/dl); format: functional, Cricetinae
Hamster [27] = assay: Antiatherosclerotic activity in Bio F1B hamster model of diet-induced atherosclerosis assessed as plasma cholesterol ester level at 30 mg/kg/day added to chow pellets (reference value: 1379.3 mg/dl); format: functional, Cricetinae
Hamster [28] = assay: Antiatherosclerotic activity in Bio F1B hamster model of diet-induced atherosclerosis assessed as liver cholesterol ester level at 1 mg/kg/day added to chow pellets (reference value: 24.04 mg/dl); format: functional, Cricetinae
Hamster [29] = assay: Antiatherosclerotic activity in Bio F1B hamster model of diet-induced atherosclerosis assessed as liver cholesterol ester level at 3 mg/kg/day added to chow pellets (reference value: 24.04 mg/dl); format: functional, Cricetinae
Hamster [30] = assay: Antiatherosclerotic activity in Bio F1B hamster model of diet-induced atherosclerosis assessed as intestinal cholesterol ester level at 1 mg/kg/day added to chow pellets (reference value: 1.09 mg/dl); format: functional, Cricetinae
Hamster [31] = assay: Antiatherosclerotic activity in Bio F1B hamster model of diet-induced atherosclerosis assessed as intestinal cholesterol ester level at 3 mg/kg/day added to chow pellets (reference value: 1.09 mg/dl); format: functional, Cricetinae
Hamster [32] = assay: Antiatherosclerotic activity in Bio F1B hamster model of diet-induced atherosclerosis assessed as adrenal cholesterol ester level at 1 mg/kg/day added to chow pellets (reference value: 5.88 mg/dl); format: functional, Cricetinae
Hamster [33] = assay: Antiatherosclerotic activity in Bio F1B hamster model of diet-induced atherosclerosis assessed as adrenal cholesterol ester level at 10 mg/kg/day added to chow pellets (reference value: 5.88 mg/dl); format: functional, Cricetinae
Hamster [34] = assay: Antiatherosclerotic activity in Bio F1B hamster model of diet-induced atherosclerosis assessed as adrenal cholesterol ester level at 30 mg/kg/day added to chow pellets (reference value: 5.88 mg/dl); format: functional, Cricetinae

`CC(C)c1cccc(C(C)C)c1NC(=O)CCCCCCCCSc1nc2ccccc2o1` gave a Tmax [1] of 3 h, a solubility [2] of 0.03 µg/mL (≈ 0.0643 µM) and a Tmax [3] of 1 h. For the same compound, the Tmax [4] was 3.2 h, the AUC(0-t) at 8 h [5] was 358 ng·h/mL and the inhibition in vivo at 1 mg/kg/day (Hamster [6]) was 74%. For the same compound, the inhibition in vivo at 3 mg/kg/day (Hamster [7]) was 69%, the Activity (Canis familiaris) was “Toxic” and the Activity (Hamster [8]) was 2241 mg/dL. For the same compound, the Activity (Hamster [9]) was 23.62 mg/dL, the Activity (Hamster [10]) was 11.52 mg/dL and the Activity (Hamster [11]) was 3.03 mg/dL. The Activity (Hamster [12]) was 4.81 mg/dL, the Activity (Hamster [13]) was 11.13 mg/dL and the Activity (Hamster [14]) was 10.07 mg/dL. For the same compound, the Activity (Hamster [15]) was 3.47 mg/dL, the Activity (Hamster [16]) was 828.2 mg/dL and the Activity (Hamster [17]) was 491.9 mg/dL. It also gave an Activity (Hamster [18]) of 7.94 mg/dL, an Activity (Hamster [19]) of 3.18 mg/dL and an Activity (Hamster [20]) of 4.62 mg/dL. It also gave an Activity (Hamster [21]) of 4.41 mg/dL, an Activity (Hamster [22]) of 4.05 mg/dL and an Activity (Hamster [23]) of 3.5 mg/dL. It also gave an Activity (Hamster [24]) of 2.4 mg/dL, an Activity (Hamster [25]) of 1512.6 mg/dL and an Activity (Hamster [26]) of 799.7 mg/dL. The Activity (Hamster [27]) was 259 mg/dL, the Activity (Hamster [28]) was 22.81 mg/dL and the Activity (Hamster [29]) was 17.67 mg/dL. For the same compound, the Activity (Hamster [30]) was 0.98 mg/dL, the Activity (Hamster [31]) was 0.94 mg/dL and the Activity (Hamster [32]) was 6.72 mg/dL. The Activity (Hamster [33]) was 3.5 mg/dL and the Activity (Hamster [34]) was 1.08 mg/dL.
